The results in this text go back to US20230293629A1, “METHODS FOR ATTENUATING RELEASE OF INFLAMMATORY MEDIATORS AND PEPTIDES USEFUL THEREIN” (BIOMARCK PHARMACEUTICALS LTD., priority 2006, published 2023).

Where a SMILES comes first, the peptide text is derived from it. Where no end group is shown, it is not given here. The star is where a group is joined. Myristoyl = CCCCCCCCCCCCCC(=O)*

In test [1] the test system is isolated human neutrophils. Put plainly: MPO secretion from isolated human neutrophils stimulated with PMA + 8-Br-cGMP (FIG. 7, 8, 9). The class given is cell-based. To be noted: for MPO secretion: FIG. 7, 100 nM PMA and 10 μM 8-Br-cGMP.
The subject of test [2] is LPS-induced lung inflammation. The test can be described thus: In vivo LPS-induced lung inflammation, BAL analysis. The arrangement: species or system mice. To be noted: for Hb / MPO / LDH / Total Protein: BAL fluid; for Inhibition of neutrophil migration: relative to PBS/LPS treatment. As for the experimental part: This example was performed essentially according to methods described by Cox, G, Crossley, J., and Xing, Z.; Macrophage engulfment of apoptotic neutrophils contributes to the resolution of acute pulmonary inflammation in vivo; Am. J. Respir. Cell Mol. Biol. 12:232-237, 1995; Hirano S., Quantitative time-course profiles of bronchoalveolar lavage cells following intratracheal instillation of lipopolysaccharide in mice, Ind. Health 35:353-358, 1997; and Ulich T R, Watson L R, Yin S M, Guo K Z, Wang P, Thang H, and del Castillo, J. Am. J. Pathol. 138:1485-1496, 1991.
Thus, six to seven week old CD1 female mice weighing 15-20 grams were obtained from Charles River laboratories and housed in groups of 5 mice per cage. The animals received standard rodent diet and filtered water ad libitum. The animals were housed under NIH prescribed guidelines at standard temperature (64° to 79° F.) and relative humidity of 30 to 70%.
Five treatment groups of mice, with 5 animals in each group, were treated either with PBS followed by PBS, with PBS followed by LPS, with (myristoylated) MANS peptide followed by LPS, with acetylated peptide of SEQ ID NO: 1, followed by LPS, or with acetylated peptide of SEQ ID NO: 106, followed by LPS.
Intranasal peptide instillation pre-treatment: A peptide of the invention to be evaluated in vivo for its ability to inhibit or reduce LPS-induced lung inflammation was dissolved in PBS at a concentration of 1 mM. Animals, anesthetized with 0.8% isofluorane by inhalation, were pretreated with 2×10 μL intranasal bolus of the peptide solution into one nostril 30 minutes prior to subsequent instillation with LPS.
Intranasal LPS instillation: Lipopolysaccharide (LPS) Endotoxin (Escherichia coli Serotype 011:B4 derived endotoxin; Sigma, St Louis, MO; see Sigma product information sheet L4130 titled Lipopolysaccharides from Escherichia coli 011:B4) was dissolved into phosphate buffered saline (PBS) at 2,500 μg/mL. To expose animals to endotoxin, a 10 μL intranasal bolus of 2,500 μg/ml endotoxin solution was administered to animals which had been anesthetized with 0.8% isofluorane by inhalation. The 10 μL bolus was applied into one nostril. Animals were monitored for labored breathing, lethargy, and decreased water/food intake following the endotoxin instillations.
Bronchoalveolar Lavage (BAL): Six hours after the last instillation, the animals were anesthetized (90 mg/kg Nembutal) and sacrificed by exsanguination. The lung was serially lavaged 2 times with 1.0 mL aliquots of PBS. The collected BAL fluid was centrifuged to remove the cells for subsequent counting and differential analysis. Recovered lavage fluid was used for analysis of total protein, myeloperoxidase (MPO), LDH, and hemoglobin.
Analysis: Aliquots of the BAL fluid were used immediately to assay for the levels of LDH, total protein, or hemoglobin using the COBAS Fara analyzer (COBAS FARA II automated analyzer; Roche Diagnostic Systems Inc., Montclair, NJ). An aliquot of BAL fluid was frozen at −80° C. for subsequent quantitation of myeloperoxidase (MPO) with a mouse-specific ELISA assay (Cell Sciences, Inc., Canton, Mass). BAL data were analyzed by standard techniques to examine differences between the control and treatment groups.

In the case of `CCCCCCCCCCCCCC(=O)O[C@@H]1[C@@H](C)[C@@]2(O)[C@@H](C=C(CO)C[C@]3(O)C(=O)C(C)=C[C@@H]23)[C@@H]2C(C)(C)[C@]12OC(C)=O` [PMA, phorbol 12-myristate 13-acetate], in test [1] (FIG. 8, PMA alone, enhanced concentration-dependently by co-stimulation with 8-Br-cGMP), the “MPO secretion from LPS-stimulated human neutrophils” value is listed as “small increase”.
Ac-GAQFSKTAAKGEAAAERPGEAAVA had a Hb in test [2] (Table 5 experiment, PBS/LPS 0.01, PBS/PBS 0.00) of 0.01 g/dL. In test [2] (Table 5 experiment, PBS/LPS 37.90, PBS/PBS 5.45), this molecule gave an MPO of 30.79 ng/mL. This molecule also registered an LDH in test [2] (Table 5 experiment, PBS/LPS 89.9, PBS/PBS 84.0) of 74.5 units/L. In test [2] (Table 5 experiment, PBS/LPS 153.4, PBS/PBS 230.6), the “Total Protein” value was 182.75 µg/mL. In addition, the “% Neutrophils of total counts” value in test [2] (Table 5 experiment, PBS/LPS 65.5, PBS/PBS 22.1) was 41.47%. Also, the “Total Neutrophil counts” value in test [2] (Table 5 experiment, PBS/LPS 164,578, PBS/PBS 19,770) is listed as 105,499. The “Total Cell Counts” value in test [2] (Table 5 experiment, PBS/LPS 251,360, PBS/PBS 89,440) is recorded as 254,400. Moreover, the “Inhibition of neutrophil migration” value in test [2] came out at 35.9%.
With `CCCCCCCCCCCCCC(=O)NCC(=O)N[C@H](C(=O)N[C@@H](C)C(=O)N1CCC[C@H]1C(=O)N[C@@H](C)C(=O)N[C@@H](C)C(=O)N[C@@H](CCC(=O)O)C(=O)NCC(=O)N[C@@H](C)C(=O)NCC(=O)N[C@@H](C)C(=O)N[C@@H](CCC(=O)O)C(=O)N[C@H](C(=O)N[C@@H](CCCCN)C(=O)N[C@@H](CCCNC(=N)N)C(=O)N[C@@H](C)C(=O)N[C@@H](CO)C(=O)N[C@@H](C)C(=O)N[C@@H](CCC(=O)O)C(=O)N[C@@H](C)C(=O)N[C@@H](CCCCN)C(=O)N[C@@H](CCC(N)=O)C(=O)N[C@@H](C)C(=O)N[C@@H](Cc1ccccc1)C(=O)O)C(C)C)[C@@H](C)O` [RNS, reference compound] (Myristoyl-GTAPAAEGAGAEVKRASAEAKQAF-OH; C-terminus assumed), the MPO secretion entry in test [1] (10 or 100 μM peptide) was “no effect”.
On to Ac-GAQFSKTAAK [Ac-GAQFSKTAAK], for which, in test [2] (Table 6 experiment, PBS/LPS 0.00, PBS/PBS 0.00), the Hb was determined as 0.00 g/dL. In test [2] (Table 6 experiment, PBS/LPS 7.19, PBS/PBS 4.88), this molecule gave an MPO of 1.50 ng/mL. In addition, the LDH in test [2] (Table 6 experiment, PBS/LPS 78.20, PBS/PBS 61.80) came out at 106.86 units/L. The “Total Protein” value in test [2] (Table 6 experiment, PBS/LPS 116.4, PBS/PBS 113.8) is 131.0 µg/mL. Further, the “% Neutrophils of total counts” value in test [2] (Table 6 experiment, PBS/LPS 24.4, PBS/PBS 21.3) is recorded as 3.0%. Besides, the “Total Neutrophil counts” value in test [2] (Table 6 experiment, PBS/LPS 80,077, PBS/PBS 66,521) is given as 9,170. Further, the “Total Cell Counts” value in test [2] (Table 6 experiment, PBS/LPS 327,680, PBS/PBS 312,620) is recorded as 305,688. The “Inhibition of neutrophil migration” value in test [2] was determined as 88.5%.
With `CCCCCCCCCCCCCC(=O)NCC(=O)N[C@@H](C)C(=O)N[C@@H](CCC(N)=O)C(=O)N[C@@H](Cc1ccccc1)C(=O)N[C@@H](CO)C(=O)N[C@@H](CCCCN)C(=O)N[C@H](C(=O)N[C@@H](C)C(=O)N[C@@H](C)C(=O)N[C@@H](CCCCN)C(=O)NCC(=O)N[C@@H](CCC(=O)O)C(=O)N[C@@H](C)C(=O)N[C@@H](C)C(=O)N[C@@H](C)C(=O)N[C@@H](CCC(=O)O)C(=O)N[C@@H](CCCNC(=N)N)C(=O)N1CCC[C@H]1C(=O)NCC(=O)N[C@@H](CCC(=O)O)C(=O)N[C@@H](C)C(=O)N[C@@H](C)C(=O)N[C@H](C(=O)N[C@@H](C)C(=O)O)C(C)C)[C@@H](C)O` [MANS] (Myristoyl-GAQFSKTAAKGEAAAERPGEAAVA-OH; C-terminus assumed), the Total cells counted in test [2] (BAL 6 h after intranasal LPS, 2×10 μL 1 mM peptide intranasal 30 min before LPS, PBS/LPS 264,200, PBS/PBS 157,020) is listed as 208,457. The same molecule registered a Hb in test [2] (Table 4 experiment, PBS/LPS 0.19, PBS/PBS 0.00) of 0.05 g/dL. This molecule also returned an MPO in test [2] (Table 4 experiment, PBS/LPS 28.98, PBS/PBS 3.28) of 9.49 ng/mL. Besides, the LDH in test [2] (Table 4 experiment, PBS/LPS 60.40, PBS/PBS 68.20) is on record as 68.57 units/L. Moreover, in test [2] (Table 4 experiment, PBS/LPS 272.40, PBS/PBS 125.60), the “Total Protein” value stood at 175.00 µg/mL. Moreover, in test [2] (Table 4 experiment, PBS/LPS 41.7, PBS/PBS 18.7), the “% Neutrophils of total cells” value is recorded as 30.9%. Also, the Total neutrophils counted in test [2] (Table 4 experiment, PBS/LPS 110,061, PBS/PBS 29317) is recorded as 64,481. Moreover, the “Inhibition of neutrophil migration” value in test [2] was 41.4%. In addition, the figures for the MPO secretion entry in test [1] (10 μM peptide) and in test [1] (100 μM peptide) were “slight decrease” and “decreased secretion of MPO to control levels”, respectively.
